Data reported in ChEMBL document CHEMBL1201861, “Genomics of Drug Sensitity in Cancer screening data, Wellcome Trust Sanger Institute”.

Tests used:
Assay in all cases: cells
HT-1376 = format: functional, cell-based, Homo sapiens; conditions: Homo sapiens, HT-1376
Description: SANGER: Inhibition of human HT-1376 cell growth in a cell viability assay.

GCIY = format: functional, cell-based, Homo sapiens; conditions: Homo sapiens, GCIY;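 further: growth inhibition of the human GCIY cell line, read out by a cell viability assay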
Description: SANGER: Inhibition of human GCIY cell growth in a cell viability assay.

MV4-11 = format: functional, cell-based, MV-4-11; conditions: Homo sapiens;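 further: cell viability readout measuring growth inhibition of human MV-4-11 cells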
Description: SANGER: Inhibition of human MV-4-11 cell growth in a cell viability assay.

SCC-15 = format: functional, cell-based, Homo sapiens; conditions: Homo sapiens, SCC-15;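 further: growth inhibition of SCC-15 cells, read out with a cell viability assay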
Description: SANGER: Inhibition of human SCC-15 cell growth in a cell viability assay.

CAL-72 = format: functional, cell-based, Homo sapiens; conditions: Homo sapiens, CAL-72;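 further: cell viability assay measuring inhibition of proliferation in the CAL-72 cell line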
Description: SANGER: Inhibition of human CAL-72 cell growth in a cell viability assay.

LU-139 = format: functional, cell-based; conditions: Homo sapiens
Description: SANGER: Inhibition of human LU-139 cell growth in a cell viability assay.

C-33-A = format: functional, cell-based, Homo sapiens; conditions: Homo sapiens, C-33-A;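 further: cell viability assay measuring growth inhibition of C-33-A cells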
Description: SANGER: Inhibition of human C-33-A cell growth in a cell viability assay.

PSN1 = format: functional, cell-based, Homo sapiens; conditions: Homo sapiens, PSN1;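 further: suppression of growth of human PSN1 cells, read out by a cell viability assay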
Description: SANGER: Inhibition of human PSN1 cell growth in a cell viability assay.

SCC-9 = format: functional, cell-based, Homo sapiens; conditions: Homo sapiens, SCC-9;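 further: Read-out is a cell viability assay, with values giving inhibition of cell growth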
NCI-H1838 = format: functional, cell-based, Homo sapiens; conditions: Homo sapiens, NCI-H1838;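 further: growth inhibition of NCI-H1838 cells, determined with a cell viability readout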
Description: SANGER: Inhibition of human NCI-H1838 cell growth in a cell viability assay.

T98G = format: functional, cell-based, Homo sapiens; conditions: Homo sapiens, T98G;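 further: growth inhibition of T98G cells, read out by a cell viability assay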
Description: SANGER: Inhibition of human T98G cell growth in a cell viability assay.

MDA-MB-453 = format: functional, cell-based, Homo sapiens; conditions: Homo sapiens, MDA-MB-453
Description: SANGER: Inhibition of human MDA-MB-453 cell growth in a cell viability assay.

Detroit 562 = format: functional, cell-based, Homo sapiens; conditions: Homo sapiens, Detroit 562;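 further: growth inhibition of human Detroit 562 cells, read out by a cell viability assay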
NTERA-2-cl-D1 = format: functional, cell-based, Homo sapiens; conditions: Homo sapiens, NTERA-2-cl-D1;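 further: inhibition of cell growth, measured with a cell viability assay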
Description: SANGER: Inhibition of human NTERA-S-cl-D1 cell growth in a cell viability assay.

HT-3 = format: functional, cell-based, Homo sapiens; conditions: Homo sapiens, HT-3;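 further: growth inhibition measured with a cell viability readout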
Description: SANGER: Inhibition of human HT-3 cell growth in a cell viability assay.

HTC-C3 = format: functional, cell-based, Homo sapiens; conditions: Homo sapiens, HTC-C3;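 further: inhibition of cell growth, read out with a cell viability assay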
Description: SANGER: Inhibition of human HTC-C3 cell growth in a cell viability assay.

BT-20 = format: functional, cell-based, Homo sapiens; conditions: Homo sapiens, BT-20;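 further: cell viability assay measuring suppression of growth in human BT-20 cells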
Description: SANGER: Inhibition of human BT-20 cell growth in a cell viability assay.

SW626 = format: functional, cell-based, Homo sapiens; conditions: Homo sapiens, SW626;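 further: growth inhibition of SW626 cells, measured with a cell viability assay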
Description: SANGER: Inhibition of human SW626 cell growth in a cell viability assay.

LB831-BLC = format: functional, cell-based, Homo sapiens; conditions: Homo sapiens, LB831-BLC;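 further: growth inhibition of LB831-BLC cells, read out with a cell viability assay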
Description: SANGER: Inhibition of human LB831-BLC cell growth in a cell viability assay.

SBC-1 = format: functional, cell-based; conditions: Homo sapiens;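 further: cell viability assay measuring growth inhibition of the SBC-1 cell line, IC50 being the concentration that halves growth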
Description: SANGER: Inhibition of human SBC-1 cell growth in a cell viability assay.

MKN-1 = format: functional, cell-based, Homo sapiens; conditions: Homo sapiens, MKN-1;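 further: growth inhibition of human MKN1 cells, read out by a cell viability measurement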
Description: SANGER: Inhibition of human MKN1 cell growth in a cell viability assay.

OE19 = format: functional, cell-based, Homo sapiens; conditions: Homo sapiens, OE19;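 further: growth inhibition of OE19 cells, measured through a cell viability read-out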
Description: SANGER: Inhibition of human OE19 cell growth in a cell viability assay.

NEC8 = format: functional, cell-based, Homo sapiens; conditions: Homo sapiens, NEC8;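 further: growth inhibition of human NEC8 cells, read out by a cell viability assay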
Description: SANGER: Inhibition of human NEC8 cell growth in a cell viability assay.

A253 cell line = format: functional, cell-based, Homo sapiens; conditions: Homo sapiens, A253;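 further: growth inhibition of A253 cells, read out with a cell viability assay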
Description: SANGER: Inhibition of human A253 cell growth in a cell viability assay.

A3-KAW = format: functional, cell-based; conditions: Homo sapiens;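 further: growth inhibition of human A3-KAW cells, read out with a cell viability assay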
Description: SANGER: Inhibition of human A3-KAW cell growth in a cell viability assay.

PC-3 = format: functional, cell-based, Homo sapiens; conditions: Homo sapiens, PC-3;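 further: cell viability assay measuring growth inhibition of PC-3 cells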
Description: SANGER: Inhibition of human PC-3 cell growth in a cell viability assay.

NCI-H441 = format: functional, cell-based; conditions: Homo sapiens;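 further: growth inhibition of NCI-H441 cells, read out with a cell viability assay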
Description: SANGER: Inhibition of human NCI-H441 cell growth in a cell viability assay.

NCI-H596 = format: functional, cell-based, Homo sapiens; conditions: Homo sapiens, NCI-H596;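 further: growth inhibition of NCI-H596 cells, read out with a cell viability assay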
Description: SANGER: Inhibition of human NCI-H596 cell growth in a cell viability assay.

CAL-85-1 = format: functional, cell-based; conditions: Homo sapiens;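 further: growth inhibition of human CAL-85-1 cells, read out with a cell viability assay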
EW-3 = format: functional, cell-based; conditions: Homo sapiens;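 further: cell viability assay read-out, IC50 reflects inhibition of growth of the EW-3 cells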
Description: SANGER: Inhibition of human EW-3 cell growth in a cell viability assay.

ALL-PO = format: functional, cell-based; conditions: Homo sapiens;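 further: growth inhibition of ALL-PO cells, read out by a cell viability assay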
Description: SANGER: Inhibition of human ALL-PO cell growth in a cell viability assay.

BFTC-905 = format: functional, cell-based, Homo sapiens; conditions: Homo sapiens, BFTC-905
Description: SANGER: Inhibition of human BFTC-905 cell growth in a cell viability assay.

MDA-MB-231 = format: functional, cell-based, Homo sapiens; conditions: Homo sapiens, MDA-MB-231
Description: SANGER: Inhibition of human MDA-MB-231 cell growth in a cell viability assay.

Hs-578T = format: functional, cell-based, Homo sapiens; conditions: Homo sapiens, Hs-578T
Description: SANGER: Inhibition of human Hs-578-T cell growth in a cell viability assay.

KMOE-2 = format: functional, cell-based; conditions: Homo sapiens;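 further: growth inhibition of human KMOE-2 cells, read out with a cell viability assay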
Description: SANGER: Inhibition of human KMOE-2 cell growth in a cell viability assay.

HCC2157 = format: functional, cell-based; conditions: Homo sapiens;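 further: growth inhibition of the cancer cell line, read out as cell viability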
Description: SANGER: Inhibition of human HCC2157 cell growth in a cell viability assay.

SW1463 = format: functional, cell-based, Homo sapiens; conditions: Homo sapiens, SW1463;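 further: growth inhibition of SW1463 cells, determined with a cell viability assay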
Description: SANGER: Inhibition of human SW1463 cell growth in a cell viability assay.

EFO-27 = format: functional, cell-based, Homo sapiens; conditions: Homo sapiens, EFO-27;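 further: growth inhibition of EFO-27 cells, read out with a cell viability assay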
Description: SANGER: Inhibition of human EFO-27 cell growth in a cell viability assay.

BE-13 = format: functional, cell-based; conditions: Homo sapiens;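 further: growth inhibition of human BE-13 cells, measured with a cell viability assay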
Description: SANGER: Inhibition of human BE-13 cell growth in a cell viability assay.

U-251 = format: functional, cell-based, Homo sapiens; conditions: Homo sapiens, U-251;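 further: growth inhibition of human U-251 cells, read out through a cell viability assay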
Description: SANGER: Inhibition of human U251 cell growth in a cell viability assay.

UACC-62 = format: functional, cell-based, Homo sapiens; conditions: Homo sapiens, UACC-62;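 further: growth inhibition of human UACC-62 cells, read out by a cell viability assay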
Description: SANGER: Inhibition of human UACC-62 cell growth in a cell viability assay.

HSC-3 = format: functional, cell-based, Homo sapiens; conditions: Homo sapiens, HSC-3
Description: SANGER: Inhibition of human HSC-3 cell growth in a cell viability assay.

DU-145 = format: functional, cell-based, Homo sapiens; conditions: Homo sapiens, DU-145
Description: SANGER: Inhibition of human DU-145 cell growth in a cell viability assay.

SK-OV-3 = format: functional, cell-based, Homo sapiens; conditions: Homo sapiens, SK-OV-3;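 further: growth inhibition of SK-OV-3 human cells, read out with a cell viability assay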
Description: SANGER: Inhibition of human SK-OV-3 cell growth in a cell viability assay.

HCC1395 = format: functional, cell-based, Homo sapiens; conditions: Homo sapiens, HCC1395;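 further: growth inhibition of HCC1395 cells, read out by a cell viability assay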
Description: SANGER: Inhibition of human HCC1395 cell growth in a cell viability assay.

NCI-H1581 = format: functional, cell-based, Homo sapiens; conditions: Homo sapiens, NCI-H1581;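 further: cell growth inhibition read out by a viability assay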
Description: SANGER: Inhibition of human NCI-H1581 cell growth in a cell viability assay.

ETK-1 = format: functional, cell-based, Homo sapiens; conditions: Homo sapiens, ETK-1;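 further: growth inhibition of human ETK-1 cells, read out with a cell viability assay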
Description: SANGER: Inhibition of human ETK-1 cell growth in a cell viability assay.

MDA-MB-157 = format: functional, cell-based, Homo sapiens; conditions: Homo sapiens, MDA-MB-157
Description: SANGER: Inhibition of human MDA-MB-157 cell growth in a cell viability assay.

K562 = format: functional, cell-based; conditions: Homo sapiens
Description: SANGER: Inhibition of human K-562 cell growth in a cell viability assay.

CP66-MEL = format: functional, cell-based, Homo sapiens; conditions: Homo sapiens, CP66-MEL;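 further: growth inhibition of CP66-MEL cells determined in a cell viability assay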
Description: SANGER: Inhibition of human CP66-MEL cell growth in a cell viability assay.

NB69 = format: functional, cell-based, Homo sapiens; conditions: Homo sapiens, NB69;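 further: growth inhibition of NB69 cells, determined by a cell viability assay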
Description: SANGER: Inhibition of human NB69 cell growth in a cell viability assay.

Cc1ccc(Nc2nccc(N(C)c3ccc4c(C)n(C)nc4c3)n2)cc1S(N)(=O)=O [PAZOPANIB]
IC50 (HT-1376): > 8 µM | IC50 (GCIY): > 8 µM | IC50 (MV4-11): 1.35 µM | IC50 (SCC-15): > 8 µM | IC50 (CAL-72): 5.94 µM | IC50 (LU-139): > 8 µM | IC50 (C-33-A): > 8 µM | IC50 (PSN1): > 8 µM | IC50 (SCC-9): > 8 µM | IC50 (NCI-H1838): > 8 µM | IC50 (T98G): > 8 µM | IC50 (MDA-MB-453): > 8 µM | IC50 (Detroit 562): > 8 µM | IC50 (NTERA-2-cl-D1): > 8 µM | IC50 (HT-3): > 8 µM | IC50 (HTC-C3): > 8 µM | IC50 (BT-20): > 8 µM | IC50 (SW626): > 8 µM | IC50 (LB831-BLC): 2.55 µM | IC50 (SBC-1): > 8 µM | IC50 (MKN-1): > 8 µM | IC50 (OE19): > 8 µM | IC50 (NEC8): > 8 µM | IC50 (A253 cell line): > 8 µM | IC50 (A3-KAW): > 8 µM | IC50 (PC-3): > 8 µM | IC50 (NCI-H441): > 8 µM | IC50 (NCI-H596): > 8 µM | IC50 (CAL-85-1): > 8 µM | IC50 (EW-3): > 8 µM | IC50 (ALL-PO): > 8 µM | IC50 (BFTC-905): > 8 µM | IC50 (MDA-MB-231): > 8 µM | IC50 (Hs-578T): > 8 µM | IC50 (KMOE-2): > 8 µM | IC50 (HCC2157): > 8 µM | IC50 (SW1463): > 8 µM | IC50 (EFO-27): > 8 µM | IC50 (BE-13): > 8 µM | IC50 (U-251): > 8 µM | IC50 (UACC-62): > 8 µM | IC50 (HSC-3): > 8 µM | IC50 (DU-145): > 8 µM | IC50 (SK-OV-3): > 8 µM | IC50 (HCC1395): 2.58 µM | IC50 (NCI-H1581): > 8 µM | IC50 (ETK-1): > 8 µM | IC50 (MDA-MB-157): > 8 µM | IC50 (K562): > 8 µM | IC50 (CP66-MEL): > 8 µM | IC50 (NB69): > 8 µM

Cn1cncc1[C@@](N)(c1ccc(Cl)cc1)c1ccc2c(c1)c(-c1cccc(Cl)c1)cc(=O)n2C [TIPIFARNIB]
IC50 (HT-1376): 11.6 µM | IC50 (GCIY): 12.5 µM | IC50 (MV4-11): 0.733 µM | IC50 (SCC-15): 10.8 µM | IC50 (CAL-72): 4.95 µM | IC50 (LU-139): > 16 µM | IC50 (C-33-A): 4.49 µM | IC50 (PSN1): 1.11 µM | IC50 (SCC-9): > 16 µM | IC50 (NCI-H1838): > 16 µM | IC50 (T98G): 11.8 µM | IC50 (MDA-MB-453): > 16 µM | IC50 (Detroit 562): 4.07 µM | IC50 (NTERA-2-cl-D1): 0.237 µM | IC50 (HT-3): > 16 µM | IC50 (HTC-C3): 4.83 µM | IC50 (BT-20): > 16 µM | IC50 (SW626): 1.37 µM | IC50 (LB831-BLC): 2.64 µM | IC50 (SBC-1): > 16 µM | IC50 (MKN-1): 1.88 µM | IC50 (OE19): 5.75 µM | IC50 (NEC8): > 16 µM | IC50 (A253 cell line): 10.5 µM | IC50 (A3-KAW): 0.901 µM | IC50 (PC-3): 11.3 µM | IC50 (NCI-H441): 13.6 µM | IC50 (NCI-H596): 1.82 µM | IC50 (CAL-85-1): 1.25 µM | IC50 (EW-3): > 16 µM | IC50 (ALL-PO): 0.555 µM | IC50 (BFTC-905): 1.88 µM | IC50 (MDA-MB-231): 5.83 µM | IC50 (Hs-578T): > 16 µM | IC50 (KMOE-2): 5.18 µM | IC50 (HCC2157): 0.323 µM | IC50 (SW1463): > 16 µM | IC50 (EFO-27): 0.714 µM | IC50 (BE-13): 4.94 µM | IC50 (U-251): 7.09 µM | IC50 (UACC-62): > 16 µM | IC50 (HSC-3): 2.63 µM | IC50 (DU-145): 8.66 µM | IC50 (SK-OV-3): 2.49 µM | IC50 (HCC1395): 14.9 µM | IC50 (NCI-H1581): > 16 µM | IC50 (ETK-1): 0.0215 µM | IC50 (MDA-MB-157): 14.7 µM | IC50 (K562): 4.82 µM | IC50 (CP66-MEL): 9.82 µM | IC50 (NB69): > 16 µM
